Reference: patent US10603273B2, “Membrane-adherent self-assembled systems for treatment of ocular disorders” (Integral Biosystems LLC, priority 2014, dated 2020)
Values after ≈ are worked out from the molar mass of the structure shown. Like-named read-outs stand apart in the source and are kept apart here. Blank lines part the entries; values can stand above or below the compound they belong to.

What was measured:
[1] = Solubility of API in Phase I excipient mixtures; type: physicochemical
Description: Solubility of APIs were examined in different Phase I mixtures.
Initially, the solubility of fluticasone propionate was determined in 10 g of Phase I composed of a 7:3 (w/w) mixture of PHOSAL™ Medium Chain Triglycerides (“MCT”) and polyethylene glycol-400 (PEG-400). MCT, a mixture of phosphatidylcholine and medium chain triglycerides, is the hydrophobic component and PEG-400 is the hydrophilic component in this exemplary Phase I. MCT and PEG-400 were added into a glass vial and the mixture was vortexed for 2 min until the components formed a homogeneous mixture. Fluticasone propionate was added in an incremental manner and stirred at 850 rpm using a Scilogex MSH 280 Pro hot stir plate at a temperature of 37° C. Stirring was continued until saturation solubility was reached.
In order to increase the solubility of the fluticasone propionate in Phase I, mineral oil (Drakeol 600LT) was added into the composition. A Phase I containing MCT: PEG-400: mineral oil weight ratio of 7:2:1 was prepared as described above. The total amount of Phase I was 10 g. Fluticasone propionate was added in an incremental manner and the mixture was stirred for 5 min. and vortexed for 5 min after each addition of fluticasone propionate into the mixture. In this Phase I, 98.2 mg of fluticasone propionate dissolved completely in 37 min.
Another Phase I mixture containing PEG-400, polypropylene glycol (PPG), and cremophor in a weight ratio 2.9:7:0.1 was also evaluated. Cremophor was used because it is widely used as a co-solvent to enhance the solubility of poorly soluble drugs.
In this Phase I, 200.30 mg of fluticasone propionate was completely dissolved in 10 g when stirred at 1200 rpm for 2 min at 45° C.
Another Phase I mixture was produced containing 30% w/w PEG-400, 60% w/w PPG, 5% w/w MCT, 0.25% w/w cetyl alcohol, and 4.75% w/w ethanol. In 10 g of this Phase I, 180 mg fluticasone propionate dissolved completely after stirring at 1280 rpm for 15 min at 45° C.
Triamcinolone acetonide is a […] anti-inflammatory drug having low aqueous solubility.
A Phase I containing 30% w/w PEG-400, 20% w/w PPG, 0.5% w/w cetyl alcohol, 9.5% w/w ethanol, 5% w/w MCT and 35% w/w Castor oil was produced. Triamcinolone acetonide was added incrementally and the mixture stirred at 840 rpm using a Scilogex MSH 280 Pro set to 45° C.

[2] = Solubility of fluticasone propionate in nanostructured dispersions and single excipients; type: physicochemical; conditions: for solubility: oil or lipid
Description: Phase I was prepared containing PEG-400 at 20%, PPG at 10%, cetyl alcohol at 10%, MCT at 1%, PEG-stearate at 7%, poloxamer 407 at 2.22%, tyloxapol at 1%, polysorbate 80 at 1%, castor oil at 38%, and fluticasone propionate at 1-2%.
The composition of Phase II was sodium phosphate monobasic (0.017%), sodium phosphate dibasic (0.052%), sodium hyaluronate (0.15%), and dH2O (99.78%).
Phase I was mixed with Phase II at a weight ratio of 1:9.
The concentration of fluticasone propionate achievable in this formulation was 0.1-0.2%.
The solubility of fluticasone propionate in cetyl alcohol was 0.3 mg/ml. As just described, the final dispersion has a fluticasone propionate concentration of 1-2 mg/ml (0.1-0.2%).
In this example, cholesterol was added to obtain a higher concentration of hydrophobic excipients. The composition of Phase I was PEG-400 (20%), PPG (10%), cetyl alcohol (10%), cholesterol (2%), MCT (10%), PEG-stearate (5%), poloxamer 407 (2.22%), tyloxapol (1%), polysorbate 80 (1%), castor oil (36.9%), and fluticasone propionate (1-5%).
The final concentration of fluticasone propionate achievable in this formulation is 0.1-0.5% The maximum amount of fluticasone propionate expected to be solubilized by adding up the amount solubilized in each separate excipient is 0.06%.

[3] = Particle size distribution (Horiba particle size analyzer); type: physicochemical; conditions: nanodispersion of the named drug, drug delivery platform of Example 1
Description: Particle sizing was carried out by adding approximately 20 μL of the Phase III dispersion in a solution of 2% w/w glycerin, 0.1% w/w sodium pyrophosphate decahydrate. Particle size distribution of the Phase III nano-dispersions were measured using a Horiba LA-950V2 particle size analyzer at room temperature, i.e., 22-25° C.

[4] = In-vitro drug release, dialysis device, 1% HP-β-CD phosphate buffer pH 7.4, 37° C.; type: in vitro ADME; conditions: 0.1% nanostructured dispersion; released over 3 hours
Description: In-vitro drug release was determined at 37° C., pH 7.4 as follows: The Phase III dispersion (1 g) was transferred into a Spectra/Pore Float-A-Lyzer G2 dialysis device, which was then placed into a 50 mL locking centrifuge tube containing 40 g of 1% hydroxylpropyl-β-cyclodextrin (HP-β-CD) in phosphate buffer at pH 7.4, 37° C. The entire assembly was loaded onto a Robbins Scientific Model 400 rotating incubator. At each time point, 1 mL of sample was retrieved and fresh buffer added to replace the volume removed. Samples were measured for drug content using HPLC at λmax=239 nm.

[5] = tested on: freshly excised cornea; experiment: Ex-vivo corneal permeability, Franz-Cell diffusion chamber; type: in vitro ADME, calf; conditions: % of applied drug in 22 hours, 37° C.
Description: Ex-vivo corneal permeability testing is a useful tool to screen formulations for their ability to penetrate ocular tissues. Using freshly excised cornea, formulations can be tested for their ability to diffuse across the cornea membrane. The ability to diffuse through biological membranes is directly related to the formulation excipients, its physical state (e.g., suspension, solution, emulsion, dispersion) and its partition coefficient (P) and log P. Fresh calf eyes were obtained from a nearby slaughterhouse and the corneas carefully excised using sterile technique. The corneas must be freshly excised and used within 1-2 hours. The corneas were excised in a sterilized laminar flow hood, in a Class 100 environment. The excisions were performed by first draining the aqueous humor followed by carefully cutting out the cornea using a scalpel for the initial incision; forceps and scissors were used to cut the remaining tissue. […] The volume was recorded, and the remaining cells filled. […] Samples were added in rapid succession by depositing 200 μL of the formulation into each donor chamber using a calibrated pipet and the times recorded. […] The samples were analyzed for API content by HPLC as described above. […] Flux can be calculated by the formula: J=Q/(A·t), where Q is the quantity of compound traversing the membrane in time t, and A is the area of exposed membrane in cm^2. […]

[6] = Encapsulation efficiency (centrifugation, HPLC); type: physicochemical; conditions: 0.1% nanostructured dispersion (Phase III); mg drug per g dispersion
Description: Encapsulation efficiency (mg/G) was measured by placing 1.0 g of drug-containing Phase III into a 1.5 mL centrifuge tube and centrifuging it at 6000 rpm for 10 minutes using an Eppendorf Centrifuge 5145D at room temperature. 100 μL of the centrifugate was transferred to an HPLC vial containing 900 μL of 75% acetonitrile/25% water. The samples were measured for concentration of drug, e.g., dexamethasone, by HPLC at λmax=239 nm. The concentration was calculated as mg drug per g of the Phase III dispersion.

saturation solubility in Phase I ([1]; in 10 g of Phase I: 30% PEG-400, 20% PPG, 0.5% cetyl alcohol, 9.5% ethanol, 5% MCT, 35% castor oil, 840 rpm, 45° C.): 230 mg
SMILES: CC1(C)O[C@@H]2C[C@H]3[C@@H]4CCC5=CC(=O)C=C[C@]5(C)[C@@]4(F)[C@@H](O)C[C@]3(C)[C@]2(C(=O)CO)O1 [triamcinolone acetonide]

maximum concentration expected from adding the solubilized contribution of each excipient ([2]; Example 8 excipients): 0.05%
fluticasone propionate concentration of final dispersion ([2]; Example 8 final dispersion): 1 to 2 mg/mL
concentration of fluticasone propionate achievable in formulation ([2]; Example 8 formulation, Phase I:Phase II 1:9, by weight): 0.1-0.2%
maximum amount expected to be solubilized by adding up the amount solubilized in each separate excipient ([2]; Example 9 excipients): 0.06%
final concentration of fluticasone propionate achievable in formulation ([2]; Example 9 formulation with cholesterol, Phase I:Phase II 1:9): 0.1-0.5%
solubility ([2]; PHOSAL MCT alone, read-out: solubility in MCT): 0.15 mg/mL (≈ 300 µM)
solubility ([2]; cetyl alcohol alone, read-out: solubility in cetyl alcohol): 0.3 mg/mL (≈ 599 µM)
amount completely dissolved in Phase I ([1]; in 10 g of 5% cetyl alcohol in ethanol, 1200 rpm, 2 min, 45° C.): 200.30 mg
amount dissolved completely in Phase I ([1]; in 10 g of Phase I, MCT:PEG-400:mineral oil 7:2:1, dissolved in 37 min): 98.2 mg
amount dissolved in Phase I ([1]; in 10 g of Phase I: 30% PEG-400, 60% PPG, 5% MCT, 0.25% cetyl alcohol, 4.75% ethanol, 1280 rpm, 45° C.): 180 mg
D50 [3]: 0.141 μm
D90 [3]: 0.181 μm
SMILES: CCC(=O)O[C@]1(C(=O)SCF)[C@H](C)C[C@H]2[C@@H]3C[C@H](F)C4=CC(=O)C=C[C@]4(C)[C@@]3(F)[C@@H](O)C[C@@]21C [fluticasone propionate]

in vitro drug release [4]: at least 25%
SMILES: C[C@@H]1C[C@H]2[C@@H]3CCC4=CC(=O)C=C[C@]4(C)[C@@]3(F)[C@@H](O)C[C@]2(C)[C@@]1(O)C(=O)CO [dexamethasone]

in vitro drug release [4]: 35%
corneal permeability, drug released into the receptor solution [5]: 36%
amount of drug encapsulated [6]: 1.24 mg/G
SMILES: CCOC(=O)O[C@]1(C(=O)OCCl)CC[C@H]2[C@@H]3CCC4=CC(=O)C=C[C@]4(C)[C@H]3[C@@H](O)C[C@@]21C [loteprednol etabonate]
